Experimental data published in patent US5288709A, “Erythromycin derivatives” (priority 1991, dated 1994).
Where two headings read alike, the source gives them in different places.

How the values were obtained:
Assay in all cases: In-vitro antimicrobial activity primary screen (agar dilution MIC)
Format in all cases: cell-based
Escherichia coli DC-2 = tested on: Escherichia coli DC-2
Protocol: (§1) The antimicrobial spectra of several of the compounds of the present invention were tested as described below.
(§2) Twelve petri dishes containing successive aqueous dilutions of the test compounds, mixed with 10 mL of sterilized Brain Heart Infusion (BHI) agar (Difco 0418-01-5), were prepared. Each plate was inoculated with 1:100 (or 1:10 for slow growing strains (primarily Micrococcus and Streptococcus) dilutions of up to 32 different microorganisms, using a Steers replicator block. The inoculated plates were incubated at 35 37° C. for 20-24 hours. In addition, a control plate, using BHI agar containing no test compound, was prepared and incubated at the beginning and the end of each test.
(§3) An additional plate containing a compound having known susceptibility patterns for the organisms being tested and belonging to the same antibiotic class as the test compounds was also prepared and incubated as a further control, as well as to provide test-to test comparability.
(§4) After incubation, each plate was read. The MIC (minimum inhibitory concentration) is defined as the lowest concentration of test compound yielding no growth, a slight haze, or sparsely isolated colonies on the inoculum spot as compared to the growth control containing no test compound.

[1] = tested on: Providencia stuartii CMX 640
Protocol: as §1, §2, §3, §4

[2] = tested on: Pseudomonas aeruginosa K799/61; conditions: Pseudomonas aeruginosa, K799/61, 24 h, Pseudomonas aeruginosa K799/61; BHI agar, 20-24 h
Protocol: as §1, §2, §3, §4

[3] = tested on: Pseudomonas aeruginosa BMH10; conditions: BHI agar, 20-24 h
Protocol: as §1, §2, §3, §4

[4] = tested on: Pseudomonas aeruginosa A5007
Protocol: as §1, §2, §3, §4

Acinetobacter SP CMX 669 = tested on: Acinetobacter SP CMX 669
Protocol: as §1, §2, §3, §4

[5] = tested on: Staphylococcus epidermidis 3519; conditions: Staphylococcus epidermidis, 3519, 24 h, BHI agar, 20-24 h
Protocol: as §1, §2, §3, §4

Pseudomonas cepacia 2961 = conditions: BHI agar, 20-24 h
Protocol: as §1, §2, §3, §4

[6] = tested on: Staphylococcus aureus A5177; conditions: Staphylococcus aureus A5177, BHI agar, 20-24 h
Protocol: as §1, §2, §3, §4

Escherichia coli SS = conditions: BHI agar, 20-24 h
Protocol: as §1, §2, §3, §4

[7] = tested on: Klebsiella pneumoniae ATCC 8045
Protocol: as §1, §2, §3, §4

[8] = tested on: Streptococcus pyrogenes EES61; conditions: BHI agar, 20-24 h, read-out: MIC
Protocol: as §1, §2, §3, §4

Escherichia coli H560 = tested on: Escherichia coli H560
Protocol: as §1, §2, §3, §4

[9] = tested on: Micrococcus luteus ATCC 9341; conditions: ATCC9341, BHI agar, 20-24 h, read-out: MIC
Protocol: as §1, §2, §3, §4

[10] = tested on: Staphylococcus aureus 45 RAR2; conditions: Staphylococcus aureus, 45RAR2, 24 h, BHI agar, 20-24 h
Protocol: as §1, §2, §3, §4

[11] = tested on: Enterobacter aerogenes ATCC 13048; conditions: Klebsiella aerogenes
Protocol: as §1, §2, §3, §4

Staphylococcus aureus 45 = conditions: BHI agar, 20-24 h
Protocol: as §1, §2, §3, §4

[12] = tested on: Enterococcus faecium ATCC 8043
Protocol: as §1, §2, §3, §4

[13] = tested on: Staphylococcus aureus ATCC 6538P; conditions: Staphylococcus aureus, ATCC6538P, 24 h, BHI agar, 20-24 h
Protocol: as §1, §2, §3, §4

[14] = tested on: Micrococcus luteus ATCC 4698; conditions: Micrococcus luteus, ATCC4698, 24 h, BHI agar, 20-24 h
Protocol: as §1, §2, §3, §4

[15] = tested on: Streptococcus bovis A5169; conditions: Streptococcus equinus, BHI agar, 20-24 h
Protocol: as §1, §2, §3, §4

Escherichia coli JUHL = tested on: Escherichia coli JUHL
Protocol: as §1, §2, §3, §4

[16] = tested on: Pseudomonas aeruginosa K799/WT
Protocol: as §1, §2, §3, §4

[17] = tested on: Streptococcus agalactiae CMX 508; conditions: 20-24 h
Protocol: as §1, §2, §3, §4

[18] = tested on: Streptococcus pyrogenes 2548 INDUC; conditions: Streptococcus, 2548INDUC, 24 h, BHI agar, 20-24 h
Protocol: as §1, §2, §3, §4

[19] = tested on: Staphylococcus aureus CMX 686B; conditions: CMX686B, BHI agar, 20-24 h, read-out: MIC
Protocol: as §1, §2
as §3, with “comparability. Erythromycin A was used for this purpose.” for “comparability.”
as §4

[20] = tested on: Staphylococcus aureus CMX 553; conditions: Staphylococcus aureus, CMX553, 24 h, BHI agar, 20-24 h, read-out: MIC
Protocol: as §1, §2
as §3, with “comparability. Erythromycin A was used for this purpose.” for “comparability.”
as §4

[21] = tested on: Staphylococcus aureus CMX 503A; conditions: Staphylococcus aureus, CMX503A, 24 h, BHI agar, 20-24 h, read-out: MIC
Protocol: as §1, §2
as §3, with “comparability. Erythromycin A was used for this purpose.” for “comparability.”
as §4

Measured: MIC

CC[C@H]1OC(=O)[C@H](C)[C@@H](O[C@H]2C[C@@](C)(OC)[C@H](NCc3ccccc3)[C@H](C)O2)[C@H](C)[C@@H](O[C@@H]2O[C@H](C)C[C@H](N(C)C)[C@H]2O)[C@](C)(O)C[C@@H](C)[C@@H]2O[C@@]1(C)C(=O)[C@H]2C [Example 12, (4"R,9S)-9-Deoxo-4", 11,12-trideoxy-9,12-epoxy-11-oxo-4"-[(phenylmethyl)amino]erythromycin A]
> 100 µg/mL: Escherichia coli DC-2; Escherichia coli, DC2, 24 h | [1]; Providencia stuartii, CMX640, 24 h | [3]; Pseudomonas aeruginosa, BMH10, 24 h | [4]; Pseudomonas aeruginosa, A5007, 24 h | Acinetobacter SP CMX 669; Acinetobacter, SPCMX669, 24 h | Pseudomonas cepacia 2961; Burkholderia cepacia, 2961, 24 h | [7]; Klebsiella pneumoniae, ATCC8045, 24 h | Escherichia coli H560; Escherichia coli, H560, 24 h | [11]; ATCC13048, 24 h | Escherichia coli JUHL; Escherichia coli, 24 h
0.1 µg/mL: [8] | [17]; Streptococcus agalactiae, CMX508, 24 h, BHI agar
0.05 µg/mL: [9] | [15]; A5169, 24 h
100 µg/mL: [16]; Pseudomonas aeruginosa, K799/WT, 24 h
0.39 µg/mL: [5] | [6]; read-out: MIC | [10] | [13] | [14] | [19] | [21]
3.1 µg/mL: [2] | Escherichia coli SS; read-out: MIC | [18]
0.2 µg/mL: Staphylococcus aureus 45; read-out: MIC | [12]; Enterococcus faecium, ATCC8043, 24 h | [20]

CC[C@H]1OC(=O)[C@H](C)[C@@H](O[C@H]2C[C@@](C)(OC)[C@H](NS(C)(=O)=O)[C@H](C)O2)[C@H](C)[C@@H](O[C@@H]2O[C@H](C)C[C@H](N(C)C)[C@H]2O)[C@](C)(O)C[C@@H](C)[C@@H]2O[C@@]1(C)C(=O)[C@H]2C [Example 11, (4"R,9S)-9-Deoxo-4",11,12-trideoxy-9,12-epoxy-4"-[(methylsulphonyl)amino]-11-oxoerythromycin A]
0.05 µg/mL: [9] | [12]; ATCC8043, Enterococcus faecium ATCC 8043, BHI agar, 20-24 h, read-out: MIC
50 µg/mL: Acinetobacter SP CMX 669; SPCMX669, Acinetobacter SP CMX 669, BHI agar, 20-24 h, read-out: MIC
3.1 µg/mL: [2]
0.02 µg/mL: [17]; CMX508, BHI agar, read-out: MIC
0.39 µg/mL: [6]; Staphylococcus aureus, A5177, 24 h | [10] | Staphylococcus aureus 45; Staphylococcus aureus, 45, 24 h | [13] | [19] | [21]
0.1 µg/mL: [14]
100 µg/mL: [16]; Pseudomonas aeruginosa K799/WT, BHI agar, 20-24 h, read-out: MIC
> 100 µg/mL: Escherichia coli DC-2; DC2, Escherichia coli DC-2, BHI agar, 20-24 h, read-out: MIC | [1]; CMX640, Providencia stuartii CMX 640, BHI agar, 20-24 h, read-out: MIC | [3]; read-out: MIC | [4]; Pseudomonas aeruginosa A5007, BHI agar, 20-24 h, read-out: MIC | Pseudomonas cepacia 2961; Burkholderia cepacia, read-out: MIC | [7]; ATCC8045, Klebsiella pneumoniae ATCC 8045, BHI agar, 20-24 h, read-out: MIC | Escherichia coli H560; Escherichia coli H560, BHI agar, 20-24 h, read-out: MIC | [11]; ATCC13048, Enterobacter aerogenes ATCC 13048, BHI agar, 20-24 h, read-out: MIC | Escherichia coli JUHL; Escherichia coli JUHL, BHI agar, 20-24 h, read-out: MIC
< 0.005 µg/mL: [8] | [15]; read-out: MIC
0.78 µg/mL: [5] | Escherichia coli SS; Escherichia coli, 24 h | [18]
0.2 µg/mL: [20]
